Results: US20020028938A1, “Prostaglandin endoperoxide H synthase biosynthesis inhibitors” (priority 1997, published 2002)

Legend:
[1] = target: T1, recombinant human Cox-1 (r-hu Cox1) (Homo sapiens, UniProt P23219); test: Recombinant human PGHS-1 enzyme assay (RHUCX1); type: biochemical; conditions: for inhibition at 100 µM / inhibition at 1 µM / inhibition at 10 µM: read-out: RHUCX1 % Inh. at Dose; for IC50: read-out: RHUCX1 IC50 (parenthetical value)
T1 construct: made in house; host or cells: baculovirus/Sf9 insect cells (microsomes)
T1 sequence (P23219 24-599): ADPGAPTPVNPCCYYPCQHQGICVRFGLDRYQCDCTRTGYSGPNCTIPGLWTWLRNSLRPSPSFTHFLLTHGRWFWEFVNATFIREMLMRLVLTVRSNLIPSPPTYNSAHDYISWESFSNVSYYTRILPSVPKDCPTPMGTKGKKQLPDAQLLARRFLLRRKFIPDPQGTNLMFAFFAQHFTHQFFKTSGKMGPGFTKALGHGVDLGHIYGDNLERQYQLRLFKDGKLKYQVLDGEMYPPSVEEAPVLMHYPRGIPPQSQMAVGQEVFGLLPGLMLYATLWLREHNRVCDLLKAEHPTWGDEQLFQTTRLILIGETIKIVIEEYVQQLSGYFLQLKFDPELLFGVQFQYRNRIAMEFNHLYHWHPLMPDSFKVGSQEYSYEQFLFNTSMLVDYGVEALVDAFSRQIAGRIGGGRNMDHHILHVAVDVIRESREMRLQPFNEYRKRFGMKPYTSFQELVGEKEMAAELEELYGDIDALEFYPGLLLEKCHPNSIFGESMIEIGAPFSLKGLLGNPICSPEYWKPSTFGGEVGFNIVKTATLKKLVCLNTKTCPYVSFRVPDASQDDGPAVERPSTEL
Summary of the method: (§1)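 Recombinant enzyme reaction ran 2.5 minutes at room temperature, then was quenched with HCl and neutralized with NaOH. PGE2 formed with and without drug was quantified by EIA against standards in the same milieu. Percent inhibition versus control mean; IC50 by linear regression.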

[2] = target: T2, recombinant human Cox-2 (r-hu Cox-2) (Homo sapiens, UniProt P35354); test: Recombinant human PGHS-2 enzyme assay (RHUCX2); type: biochemical; conditions: for IC50: read-out: RHUCX2 IC50 (parenthetical value)
T2 construct: made in house; host or cells: baculovirus/Sf9 insect cells (microsomes)
T2 sequence (P35354 18-604): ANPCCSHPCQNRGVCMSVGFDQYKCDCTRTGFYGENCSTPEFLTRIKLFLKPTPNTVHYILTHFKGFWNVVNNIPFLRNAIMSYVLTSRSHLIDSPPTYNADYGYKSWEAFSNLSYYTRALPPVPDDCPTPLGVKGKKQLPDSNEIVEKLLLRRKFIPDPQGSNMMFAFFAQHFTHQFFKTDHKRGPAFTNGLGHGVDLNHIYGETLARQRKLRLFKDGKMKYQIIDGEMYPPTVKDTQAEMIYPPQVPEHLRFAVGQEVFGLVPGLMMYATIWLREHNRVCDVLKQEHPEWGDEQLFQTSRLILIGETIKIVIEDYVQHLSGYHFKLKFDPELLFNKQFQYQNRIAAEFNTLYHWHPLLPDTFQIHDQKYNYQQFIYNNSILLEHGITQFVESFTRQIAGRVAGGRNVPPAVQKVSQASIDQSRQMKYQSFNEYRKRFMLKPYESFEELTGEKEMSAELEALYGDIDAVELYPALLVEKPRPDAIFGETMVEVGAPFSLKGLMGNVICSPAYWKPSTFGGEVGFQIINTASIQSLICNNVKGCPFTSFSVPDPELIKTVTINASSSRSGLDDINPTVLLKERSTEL
Summary of the method: as §1

[3] = target: T3, Human Whole Platelet Cyclooxygenase-1 (Homo sapiens, UniProt P23219); test: Human Whole Platelet Cyclooxygenase-1 assay (HWPX); type: cell-based; conditions: for IC50: read-out: HWPX IC50 (parenthetical value)
T3 construct: from tissue; host or cells: human blood: isolated platelets (A4) or heparinised whole blood (A9)
T3 sequence (P23219 24-599): as the sequence (P23219 24-599) above
Method: Blood from normal healthy volunteers is collected into tubes containing ACD (acid citrate dextrose) as the anticoagulant. This blood is centrifuged at 175×g to prepare platelet rich plasma. The platelet rich plasma is then centrifuged at 100×g to pellet the white blood cells, leaving the platelets in the supernatant. The supernatant is layered on a cushion of 0.7 mL of 10% bovine serum albumin in Tyrodes solution (Gibco; Grand Island, N.Y.) and then centrifuged at 1000×g. The resulting supernatant from this centrifuigation is then removed and 11 mL of Tyrodes solution is added to the remaining pellet of platelets. The platelets are then aliquoted at 120 μl into a 96 well plate. Experimental compounds are added and allowed to pre-incubate for 10 minutes. At the end of this pre-incubation period, the calcium ionophore A23187 is added to a final concentration of 8.8 μM and the incubation is continued for ten minutes. The reaction is stopped by adding cold 6 mM EDTA, the incubation mixture is centrifuged at 220×g, and the supernatants are then analyzed for thromboxane using a commercial kit from Cayman Chemical (Ann Arbor, Mich.

[4] = target: T4, human amnionic whole cell cyclooxygenase-2 (WISH cells) (Homo sapiens, UniProt P35354); test: IL-1β induced PGE2 production in WISH cells; type: cell-based; conditions: for IC50: read-out: Wish IC50 (parenthetical value); for inhibition at 0.01 µM / inhibition at 0.1 µM: read-out: Wish % Inhib. at Dose
T4 construct: endogenous in cells; host or cells: human amnionic WISH cells, induced with IL-1beta
T4 sequence (P35354 18-604): T2 sequence (P35354 18-604)
Method: EIA reagents for prostaglandin determination were purchased from Perseptive Diagnostics, (Cambridge, Mass.). Prostaglandin E2 (PGE2) levels in lavage fluids were determined after the samples were dried under nitrogen and reconstituted with assay buffer. PGE2 levels in enzyme assays or cell culture media were measured against standards prepared in the same milieu. The immunoassays were conducted as recommended by the manufacturer. The EIA was conducted in 96 well microtiter plates (Nunc Roskilde, Denmark) and optical density was measured using a microplate reader (Vmax, Molecular Devices Corp., Menlo Park, Calif.).
Human amnionic WISH cells were grown to 80% confluence in 48 well plates. Following removal of the growth medium and two washings with Geys Balanced Salt Solutn, 5 ng IL-1β /ml (UBI, Lake Placid, N.Y.) was added to the cells with or without test compound in DMSO (0.01% v/v) in Neuman-Tytell Serumless Medium (GIBCO, Grand Island, N.Y.).

[5] = 0.1 μM, read-out: RHUCX2 % Inh. at Dose
[6] = 1 μM, read-out: RHUCX2 % Inh. at Dose
[7] = 10 μM, read-out: HWPX % Inhib. at Dose
[8] = 0.3 μM, read-out: HWPX % Inhib. at Dose

2-(5-Methylthien-2-ylmethyl)-4-(4-fluorophenyl)-5-[4-(methylsulfonyl)phenyl]-3(2H)-pyridazinone [Example 43]
RHUCX1 % Inh. at Dose (μM) ([1]; 100 μM): 8 @ 100% | RHUCX2 % Inh. at Dose (μM) ([2]; 0.1 μM): 96 @ 0.1% | RHUCX2 % Inh. at Dose (μM) ([2]; 1 μM): 100 @ 1% | HWPX % Inhib. at Dose (μM) ([3]; 1 μM): 9 @ 1% | HWPX % Inhib. at Dose (μM) ([3]; 10 μM): 86 @ 10% | IC50 [4]: 0.008 µM

CS(=O)(=O)c1ccc(-c2cnn(Cc3ccccc3)c(=O)c2-c2ccc(Cl)cc2)cc1 [Example 53, 2-Benzyl-4-(4-chlorophenyl)-5-[4-(methylsulfonyl)phenyl]-3(2H)-pyridazinone]
inhibition at 100 µM ([1]; 100 μM): 10% | inhibition at 0.1 µM [2, 5]: 77% | inhibition at 1 µM [2, 6]: 99% | inhibition at 1 µM ([3]; 1 μM, read-out: HWPX % Inhib. at Dose): 8% | inhibition at 10 µM [3, 7]: 78% | inhibition at 0.01 µM [4]: 44% | inhibition at 0.1 µM [4]: 90% | melting point: 157 to 159 °C

NS(=O)(=O)c1ccc(-c2cnn(-c3ccc(F)cc3)c(=O)c2-c2ccc(F)cc2)cc1F [Example 72, 2,4-Bis-(4-fluorophenyl)-5-[3-fluoro-4-(aminosulfonyl)phenyl]-3(2H)-pyridazinone]
inhibition at 100 µM ([1]; 100 μM): 0% | inhibition at 0.1 µM [2, 5]: 18% | inhibition at 1 µM [2, 6]: 65% | IC50 [3]: 25 µM | IC50 [4]: 0.072 µM | melting point: 222 to 224 °C

CS(=O)(=O)c1ccc(-c2cnn(-c3ccc(Cl)s3)c(=O)c2-c2ccc(Cl)cc2)cc1 [Example 100, 2-(5-Chloro-2-thienyl)-4-(4-chlorophenyl)-5-[4-(methylsulfonyl)phenyl]-3(2H)-pyridazinone]
inhibition at 1 µM ([1]; 1 μM): 65% | inhibition at 10 µM ([1]; 10 μM): 62% | inhibition at 0.1 µM [2, 5]: 61% | inhibition at 10 µM ([2]; 10 μM, read-out: RHUCX2 % Inh. at Dose): 100% | IC50 [3]: 0.13 µM | IC50 [4]: 0.02 µM | melting point: 249 to 251 °C

CS(=O)(=O)c1ccc(-c2cnn(-c3ccc([N+](=O)[O-])s3)c(=O)c2-c2ccc(F)cc2)cc1 [Example 105, 2-(5-Nitro-2-thienyl)-4-(4-fluorophenyl)-5-[4-(methylsulfonl)phenyl]-3(2H)-pyridazinone]
RHUCX1 % Inh. at Dose (μM) ([1]; 1 μM): 85 @ 1% | RHUCX2 % Inh. at Dose (μM) ([2]; 0.1 μM): 52 @ 0.1% | RHUCX2 % Inh. at Dose (μM) ([2]; 1 μM): 98 @ 1% | HWPX % Inhib. at Dose (μM) ([3]; 1 μM): 62 @ 1% | IC50 [4]: 0.018 µM

CS(=O)(=O)c1ccc(-c2cnn(-c3ccc(F)cc3)c(=O)c2Oc2ccc(F)cc2)cc1 [Example 108, 2-(4-Fluorophenyl)-4-(4-fluorophenoxy)-5-[4-(methylsulfonyl)phenyl]-3(2H)-pyridazinone]
inhibition at 100 µM ([1]; 100 μM): 0% | IC50 [2]: 0.279 µM | IC50 [3]: 8 µM | IC50 [4]: 0.097 µM

CC(/C=C/Cl)n1ncc(-c2ccc(S(N)(=O)=O)cc2)c(-c2ccc(F)cc2)c1=O (centres unmarked) [Example 140, 2-(3-Chloro-1-methyl-2E-propenyl)-4-(4-fluorophenyl)-5-[4-(aminosulfonyl)phenyl]-3(2H)-pyridazinone]
IC50 [1]: 3.06 µM | IC50 [2]: 0.022 µM | IC50 [3]: 0.773 µM | IC50 [4]: 0.01 µM

NS(=O)(=O)c1ccc(-c2cnn(CC(F)=C(F)F)c(=O)c2-c2ccc(F)cc2)cc1 [Example 141, 2-(2,3,3-Trifluoro-2-propen-1-yl)-4-(4-fluorophenyl)-5-[4-(aminosulfonyl)phenyl]-3(2H)-pyridazinone]
inhibition at 10 µM ([1]; 10 μM): 62% | inhibition at 100 µM ([1]; 100 μM): 55% | inhibition at 0.1 µM [2, 5]: 95% | inhibition at 1 µM [2, 6]: 99% | inhibition at 0.3 µM [3, 8]: 56% | IC50 [4]: 0.004 µM | melting point: 173 to 175 °C

C=C(F)C(F)(F)n1ncc(-c2ccc(S(N)(=O)=O)cc2)c(-c2ccc(F)cc2)c1=O [Example 142, 2-(1,1,2-Trifluoro-2-propenyl)-4-(4-fluorophenyl)-5-[4-(aminosulfonyl)phenyl]-3(2H)-pyridazinone]
inhibition at 1 µM ([1]; 1 μM): 53% | inhibition at 10 µM ([1]; 10 μM): 80% | inhibition at 0.01 µM ([2]; 0.01 μM, read-out: RHUCX2 % Inh. at Dose): 32% | inhibition at 0.1 µM [2, 5]: 45% | inhibition at 1 µM [2, 6]: 96% | IC50 [3]: 7.53 µM | IC50 [4]: 0.088 µM | melting point: 230 to 232 °C

NS(=O)(=O)c1ccc(-c2cnn(CC3=CCCCC3)c(=O)c2-c2ccc(F)cc2)cc1 [Example 145, 2-(1-Cyclohexenylmethyl)-4-(4-fluorphenyl)-5-[4-(aminosulfonyl)phenyl]-3(2H)-pyridazinone]
IC50 [1]: 0.238 µM | RHUCX2 % Inh. at Dose (μM) ([2]; 0.01 μM): 56 @ 0.01% | RHUCX2 % Inh. at Dose (μM) ([2]; 0.1 μM): 86 @ 0.1% | HWPX % Inhib. at Dose (μM) ([3]; 0.3 μM): 30 @ .3% | HWPX % Inhib. at Dose (μM) ([3]; 1 μM): 72 @ 1% | IC50 [4]: 0.009 µM

CC(c1ccc(F)c(F)c1F)n1ncc(-c2ccc(S(N)(=O)=O)cc2)c(-c2ccc(F)cc2)c1=O (stereo not drawn) [Example 146, 2-(α-Methyl-2,3,4-trifluorobenzyl)-4-(4-fluorophenyl)-5-[4-(aminosulfonyl)phenyl]-3(2H)-pyridazinone]
inhibition at 1 µM ([1]; 1 μM): 53% | inhibition at 10 µM ([1]; 10 μM): 82% | inhibition at 0.1 µM [2, 5]: 73% | inhibition at 1 µM [2, 6]: 100% | inhibition at 3 µM ([3]; 3 μM, read-out: HWPX % Inhib. at Dose): 46% | inhibition at 10 µM [3, 7]: 84% | IC50 [4]: 0.044 µM | melting point: 192 to 194 °C

CC(c1cc(F)cc(F)c1)n1ncc(-c2ccc(S(N)(=O)=O)cc2)c(-c2ccc(F)cc2)c1=O (stereo not drawn) [Example 147, 2-(α-Methyl-3,5-difluorobenzyl)-4-(4-fluorophenyl)-5-[4-(aminosulfonyl)phenyl]-3(2H)-pyridazinone]
IC50 [1]: 0.067 µM | inhibition at 0.03 µM ([2]; 0.03 μM, read-out: RHUCX2 % Inh. at Dose): 0% | inhibition at 0.1 µM [2, 5]: 64% | inhibition at 1 µM [2, 6]: 100% | inhibition at 0.3 µM [3, 8]: 84% | IC50 [4]: 0.029 µM | melting point: 139 to 141 °C

NS(=O)(=O)c1ccc(-c2cnn(Cc3cccc(F)c3)c(=O)c2-c2ccc(F)cc2)cc1 [Example 149, 2-(3-Fluorobenzyl)-4-(4-fluorophenyl)-5-[4-(aminosulfonyl)phenyl]-3(2H)-pyrdazinone]
RHUCX1 % Inh. at Dose (μM) ([1]; 1 μM): 40 @ 1% | RHUCX1 % Inh. at Dose (μM) ([1]; 10 μM): 45 @ 10% | IC50 [2]: 0.003 µM | HWPX % Inhib. at Dose (μM) ([3]; 3 μM): 34 @ 3% | HWPX % Inhib. at Dose (μM) ([3]; 10 μM): 89 @ 10% | IC50 [4]: 0.03 µM

C/C(=C\Cn1ncc(-c2ccc(S(N)(=O)=O)cc2)c(-c2ccc(F)cc2)c1=O)C(F)(F)F [Example 154]
IC50 [1]: 0.126 µM | IC50 [2]: 0.018 µM | inhibition at 0.1 µM ([3]; 0.1 μM, read-out: HWPX % Inhib. at Dose): 48% | inhibition at 0.3 µM [3, 8]: 81% | inhibition at 0.01 µM [4]: 69% | inhibition at 0.1 µM [4]: 100% | melting point: 155 to 157 °C

CS(=O)(=O)c1ccc(-c2cnn(-c3ccc(F)cc3)c(=O)c2COc2ccc(F)cc2)cc1 [Example 194, 2-(4-Fluorophenyl)-4-(4-fluolophenoxymethyl)-5-[4-(methylsulfonyl)phenyl]-3(2H)-pyridazinone]
RHUCX1 % Inh. at Dose (μM) ([1]; 100 μM): 35 @ 100% | RHUCX2 % Inh. at Dose (μM) ([2]; 0.1 μM): 72 @ 0.1% | RHUCX2 % Inh. at Dose (μM) ([2]; 1 μM): 73 @ 1% | RHUCX2 % Inh. at Dose (μM) ([2]; 10 μM): 90 @ 10% | IC50 [3]: 28.1 µM | IC50 [4]: 0.069 µM
